From ChEMBL document CHEMBL1123423, “Tranexamic acid derivatives with enhanced absorption” (J Med Chem, 1986) come the findings set out here.

The subject of data set [1] is Rattus norvegicus. Description: Compound was evaluated for percent tranexamic acid recovered in rat urine within 24 hr after oral administration of per moiety tranexamic acid. In kind it is ADME, organism-based. The settings on record: in vivo.
For data set [2], the system named is Rattus norvegicus. Description: Compound was evaluated for percent tranexamic acid recovered in rat urine within 24 hr after oral administration of 0.1 mmol/kg of body weight per mole of pro drug. The data set is classed as ADME, organism-based. The settings on record: in vivo.
Data set [3] can be described thus: Half-life in buffer at pH 1.2. The data set is classed as ADME.
Data set [4] in a line: Half-life in buffer at pH 7.5. The data set is classed as ADME.
Data set [5] is described as follows: Half-life in 90% human heparinized plasma. In kind it is ADME.
Data set [6] has as its system Rattus norvegicus. Put plainly: Compound was evaluated for percent recovery of tranexamic acid in urine from rat within 24 hr after oral administration of the dose 1 mmol/kg of body weight. The data set is classed as ADME, organism-based. Conditions: in vivo.
Data set [7] deals with Rattus norvegicus. Description: Compound was evaluated for percent recovery of tranexamic acid in urine from rat within 24 hr after oral administration of the dose […] of body weight. In kind it is ADME, organism-based. Conditions: in vivo.
The test system of data set [8] is Rattus norvegicus. Put plainly: Compound was evaluated for percent tranexamic acid recovered in rat urine within 24 hr after oral administration of 0.1 mmol/kg of body weight. The data set is classed as ADME, organism-based. Conditions: in vivo.
Data set [9] can be described thus: Half-life in phosphate buffer at pH 7.5. In kind it is ADME.
Data set [10] is described as follows: Half-life in phosphate buffer at pH 1.2. In kind it is ADME.

Turning to `C[C@]1(CN)CC[C@H](C(=O)OCc2oc(=O)oc2COC(=O)[C@H]2CC[C@H](CN)CC2)CC1.Cl.Cl`, the Absorption in the data set with Rattus norvegicus [1] came to 27%; in the data set with Rattus norvegicus [2] it was 54%.

A word on the half-life: it is how long it takes for the measured level to halve. Read a high half-life as slow decline. As to `CC(C)C(=O)OCOC(=O)[C@H]1CC[C@H](CN)CC1.Cl`, the values for the half-life in data set [3], in data set [4] and in data set [5] were 18 h, 36 h and 0.00833 h, respectively. This compound also displayed an Absorption in the data set with Rattus norvegicus [2] of 54%.

`C[C@]1(CN)CC[C@H](C(=O)OCOC(=O)[C@H]2CC[C@H](CN)CC2)CC1.Cl.Cl`: the Recovery in the data set on Rattus norvegicus [6] came out at 32%; in the data set on Rattus norvegicus [7], 25%. Further, the results for the Absorption in the data set on Rattus norvegicus [1] and with Rattus norvegicus [2] were 25% and 50%, respectively. Moreover, the results for the half-life in [3], in [4] and in data set [5] were 31 h, 26 h and 0.025 h, respectively.

On to `NC[C@H]1CC[C@H](C(=O)O)CC1` [TRANEXAMIC ACID], for which, in the data set with Rattus norvegicus [6], the Recovery stood at 11%. Further, in the data set with Rattus norvegicus [8], the Absorption came out at 22%.

With `CC(OC(=O)C(C)(C)C)OC(=O)[C@H]1CC[C@H](CN)CC1.Cl` (stereo partly specified), in the data set with Rattus norvegicus [2], the Absorption was 43%.

Turning to `CC(C)OC(=O)OC(C)OC(=O)[C@H]1CC[C@H](CN)CC1.Cl` (stereo partly specified), the Recovery with Rattus norvegicus [6] was determined as 86%; in the data set on Rattus norvegicus [7], 43%. In addition, the half-life in data set [3] was 58 h; in [4], 144 h. The Absorption in the data set with Rattus norvegicus [2] was 43%.

As to `CCN(CC)C(=O)C(OC(=O)[C@H]1CC[C@H](CN)CC1)OC(=O)[C@H]1CC[C@](C)(CN)CC1.Cl.Cl` (stereo partly specified), the Absorption worked out at 17% in the data set with Rattus norvegicus [1] and 34% in the data set with Rattus norvegicus [2].

Turning to `CC(OC(=O)C(C)C)OC(=O)[C@H]1CC[C@H](CN)CC1.Cl` (stereo partly specified), the half-life in data set [3] was 22 h; in data set [4], 140 h. Further, the Absorption in the data set with Rattus norvegicus [2] turned out to be 71%.

Consider `CN(C)C(=O)C(OC(=O)[C@H]1CC[C@H](CN)CC1)OC(=O)[C@H]1CC[C@](C)(CN)CC1.Cl.Cl` (stereo partly specified), for which the Absorption in the data set on Rattus norvegicus [1] turned out to be 27%; in the data set with Rattus norvegicus [2] it was 54%. Besides, the half-life in data set [3] was 38 h; in [4], 6.7 h.

In turn, `Cl.NCc1ccc(C(=O)OCOC(=O)[C@H]2CC[C@H](CN)CC2)cc1` yielded an Absorption in the data set on Rattus norvegicus [2] of 35%.

For the compound `CCOC(=O)OC(C)OC(=O)[C@H]1CC[C@H](CN)CC1.Cl` (stereo partly specified), the Recovery with Rattus norvegicus [6] is recorded as 62%; in the data set with Rattus norvegicus [7] it was 50%. Besides, the half-life in data set [3] is 54 h; in data set [4] it was 90 h; in data set [5], 0.025 h. This compound also came in with an Absorption in the data set on Rattus norvegicus [2] of 50%.

Compound `Cl.NC[C@H]1CC[C@H](C(=O)OC2OC(=O)c3ccccc32)CC1` (stereo partly specified) gave a half-life in [9] of 5 h. Besides, the Recovery in the data set with Rattus norvegicus [6] was found to be 54%; in the data set with Rattus norvegicus [7], 44%. The Absorption in the data set on Rattus norvegicus [2] is recorded as 44%.

For `CC(=O)OC(C)OC(=O)[C@H]1CC[C@H](CN)CC1.Cl` (stereo partly specified), the half-life is 14 h in data set [3], 68 h in data set [4] and 0.1 h in [5]. The same compound gave an Absorption in the data set with Rattus norvegicus [2] of 59%.

For `CCC(OC(=O)[C@H]1CC[C@H](CN)CC1)OC(=O)[C@H]1CC[C@](C)(CN)CC1.Cl.Cl` (stereo partly specified), the Absorption with Rattus norvegicus [1] is 13%; in the data set with Rattus norvegicus [2], 26%. Moreover, the half-life in data set [3] was 29 h; in [4], 70 h; in data set [5], 0.1 h.

For the compound `CC(C)(C)C(=O)NCOC(=O)[C@H]1CC[C@H](CN)CC1.Cl`, the half-life in data set [3] was 2 h; in data set [4] it was 10 h. In the data set on Rattus norvegicus [2], this compound displayed an Absorption of 22%.

`CCOC(=O)C(OC(=O)[C@H]1CC[C@H](CN)CC1)OC(=O)[C@H]1CC[C@](C)(CN)CC1.Cl.Cl` (stereo partly specified): the Absorption with Rattus norvegicus [1] turned out to be 31%; in the data set with Rattus norvegicus [2], 62%. In addition, the figures for the half-life in data set [3] and in data set [4] were 11 h and 0.9 h, respectively.

For the compound `Cc1oc(=O)oc1COC(=O)[C@H]1CC[C@H](CN)CC1.Cl`, the results for the half-life in [9] and in [10] were 2 h and 25 h, respectively. In addition, the Absorption with Rattus norvegicus [2] was 67%.

Compound `Cl.NC[C@H]1CC[C@H](C(=O)Oc2ccc(CCC(=O)O)cc2)CC1` [CETRAXATE HYDROCHLORIDE] had an Absorption with Rattus norvegicus [2] of 28%.

Consider `CC(C)(C)C(=O)OCOC(=O)[C@H]1CC[C@H](CN)CC1.Cl`, for which the Recovery is reported as 58% in the data set on Rattus norvegicus [6] and 36% in the data set with Rattus norvegicus [7]. The values for the half-life in [3], in data set [4] and in data set [5] were 164 h, 147 h and 0.0333 h, respectively. In the data set on Rattus norvegicus [2], this compound yielded an Absorption of 36%.

The compound `CCOC(=O)[C@H]1CC[C@H](CN)CC1.Cl` had an Absorption in the data set with Rattus norvegicus [8] of 92%. The compound also displayed a half-life in [5] of 4 h.

For `CC(OC(=O)[C@H]1CC[C@H](CN)CC1)OC(=O)[C@H]1CC[C@](C)(CN)CC1.Cl.Cl` (stereo partly specified), the results for the Absorption with Rattus norvegicus [1] and in the data set on Rattus norvegicus [2] were 21% and 42%, respectively.
